Drawing on patent publication US20100189783A1, “RELATING TO ANTI-HIV TABLET FORMULATIONS” (priority 2007, published 2010), this text covers dv10 value for one compound.

SMILES strings stand for the structures.

The series can be described thus: particle size (dv10) of darunavir after drying. It counts as physicochemical. To be noted: 10% (volume %) of particles smaller than value. The procedure:
The active ingredient darunavir ethanolate used in the marketed 300 mg tablet formulation has been manufactured by a process which includes a drying process in which the particulate darunavir is dried on trays, i.e. a static process. However, in order to provide a higher manufacturing throughput and improved safety for the operators, it is desirable to replace the static drying with a tumble drying operation involving drying in a revolving container. Such a change in the drying operation however has a significant effect on the physical characteristics of the particles of the darunavir. In this case the tumble drying of the particles results in a reduction in the dv10 value (dv10 means that 10% (volume %) of the particles has a diameter smaller than the specified value) from approximately 80 microns to approximately 35 microns. […] It will be appreciated that good blend flow and good tablet properties such as weight uniformity and appropriate visual appearance, without any defects, are essential in a large-scale industrial manufacturing process to maximise throughput and ensure consistent and efficient processing of the material.

Consider `CC(C)CN(C[C@@H](O)[C@H](Cc1ccccc1)NC(=O)O[C@H]1CO[C@H]2OCC[C@H]21)S(=O)(=O)c1ccc(N)cc1` [darunavir, [(1S,2R)-3-[[(4-aminophenyl)sulfonyl](2-methylpropyl)amino]-2-hydroxy-1-(phenylmethyl)propyl]-carbamic acid (3R,3aS,6aR)hexahydrofuro[2,3-b]furan-3-yl ester], for which the dv10 value result is listed as “approximately 35 microns” (after tumble drying) and “approximately 80 microns” (static drying on trays).
